Where two headings read alike, the source gives them in different places.
Molecular target: T1, PDGF-Ra (Homo sapiens, UniProt P16234)
T1 construct: host or cells: G-292 human osteosarcoma cells
Test: Inhibitory activity against PDGF-Ra phosphorylation by PDGF-AA stimulation using G292
Type: cell-based
Settings: for IC50: > means inhibition at indicated concentration not more than 50%, < and << not less than 50%, read-out: PDGF (E) IC50; for inhibition at 0.1 µM: G292, figure within parentheses in >100( ), read-out: PDGF (E) inhibition (%) at 100 nM
In short: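 Phosphorylated PDGF-Ra was measured colorimetrically (450 nm) after tyrosine-phosphorylated proteins from G-292 lysates were bound to PY-20-coated wells and detected with anti-PDGF-Ra antibody. Compound preincubation lasted 1 hr, followed by 50 ng/ml PDGF-AA for 5 min.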

T1 sequence (P16234 24-1089): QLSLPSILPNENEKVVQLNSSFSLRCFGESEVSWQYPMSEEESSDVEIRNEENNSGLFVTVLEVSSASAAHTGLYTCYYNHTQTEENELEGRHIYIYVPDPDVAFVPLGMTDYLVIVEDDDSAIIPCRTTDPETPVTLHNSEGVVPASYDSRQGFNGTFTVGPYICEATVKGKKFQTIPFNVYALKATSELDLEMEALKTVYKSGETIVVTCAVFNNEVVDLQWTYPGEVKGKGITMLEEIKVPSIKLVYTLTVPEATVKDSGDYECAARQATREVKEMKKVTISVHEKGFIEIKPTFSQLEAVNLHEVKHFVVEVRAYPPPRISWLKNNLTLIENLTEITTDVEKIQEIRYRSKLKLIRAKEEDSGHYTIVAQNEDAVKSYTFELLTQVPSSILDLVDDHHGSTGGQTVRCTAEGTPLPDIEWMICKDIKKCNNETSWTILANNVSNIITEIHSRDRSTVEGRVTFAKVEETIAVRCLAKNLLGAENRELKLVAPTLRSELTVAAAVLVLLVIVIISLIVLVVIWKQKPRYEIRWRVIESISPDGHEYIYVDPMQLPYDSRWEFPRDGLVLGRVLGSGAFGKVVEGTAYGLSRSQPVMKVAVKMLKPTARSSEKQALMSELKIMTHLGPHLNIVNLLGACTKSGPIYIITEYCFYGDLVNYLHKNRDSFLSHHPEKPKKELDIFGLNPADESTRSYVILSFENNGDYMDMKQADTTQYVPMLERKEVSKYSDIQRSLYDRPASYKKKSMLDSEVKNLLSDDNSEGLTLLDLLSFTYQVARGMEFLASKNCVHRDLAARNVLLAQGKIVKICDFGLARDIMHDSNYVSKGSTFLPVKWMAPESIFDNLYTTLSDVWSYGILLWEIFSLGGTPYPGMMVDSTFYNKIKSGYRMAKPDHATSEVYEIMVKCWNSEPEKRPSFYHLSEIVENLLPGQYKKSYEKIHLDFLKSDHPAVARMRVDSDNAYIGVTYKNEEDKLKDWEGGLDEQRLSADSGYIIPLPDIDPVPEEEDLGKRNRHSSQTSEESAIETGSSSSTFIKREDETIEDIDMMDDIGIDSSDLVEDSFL

Molecule	IC50	inhibition at 0.1 µM (at 100 nM)	also measured
CCCCCCOc1ccc(C(=O)NC(=S)Nc2ccc(Oc3ccnc4cc(OC)c(OC)cc34)cc2)cc1 [Example 755, N-{4-[(6,7-Dimethoxy-4-quinolyl)oxy]phenyl}-N′-[4-(hexyloxy)benzoyl]thiourea]	> 100 nM	3%	–
CCN(CC)CCNC(=O)Nc1ccc(Oc2ccnc3cc(OC)c(OC)cc23)cc1C [Example 649, N-[2-(Diethylamino)ethyl]-N′-{4-[(6,7-dimethoxy-4-quinolyl)oxy]-2-methylphenyl}urea]	39 nM	–	–
COc1cc2nccc(Oc3cc(C)c(NC(=O)OC(C#N)c4ccccc4)cc3C)c2cc1OC (stereo not drawn) [Example 454, Cyano(phenyl)methyl N-{4-[(6,7-dimethoxy-4-quinolyl)oxy]-2,5-dimethylphenyl}carbamate]	> 100 nM	23%	–
COc1cc2nccc(Oc3cc(C)c(NC(=O)OCCOc4cccc(F)c4)cc3C)c2cc1OC [Example 209, 2-(3-Fluorophenoxy)ethyl N-{4-[(6,7-dimethoxy-4-quinolyl)oxy]-2,5-dimethylphenyl}carbamate]	–	–	IC50 (Pharmacological Test Example 1): > 100 nM
COc1ccc(C(=O)NC(=S)Nc2ccc(Oc3ncnc4cc(OC)c(OC)cc34)cc2)cc1OC [Example 1203, N-(3,4-Dimethoxybenzoyl)-N′-{4-[(6,7-dimethoxy-4-quinazolinyl)oxy]phenyl}thiourea]	< 10 nM	–	–
COc1cc2ncnc(Oc3ccc(NC(=O)Sc4ccc(Cl)cc4C)cc3)c2cc1OC [Example 179, 4-Chloro-2-methylphenyl{4-[(6,7-dimethoxy-4-quinazolinyl)oxy]anilino}methanethioate]	–	–	IC50 (Pharmacological Test Example 1): 70 nM
CCC(C(=O)NC(=S)Nc1ccc(Oc2ccnc3cc(OC)c(OC)cc23)c(Cl)c1)c1ccccc1 (stereo not drawn) [Example 748, N-{3-Chloro-4-[(6,7-dimethoxy-4-quinolyl)oxy]phenyl}-N′-(2-phenylbutanoyl)thiourea]	85 nM	–	–
COc1cc2ncnc(Oc3ccc(NC(=S)NC(=O)c4ccc(Br)cc4)cc3)c2cc1OC [Example 1168, N-(4-Bromobenzoyl)-N′-{4-[(6,7-dimethoxy-4-quinazolinyl)oxy]phenyl}thiourea]	< 10 nM	–	–
COc1ccc(C(=O)NC(=S)Nc2ccc(Oc3ccnc4cc(OC)c(OC)cc34)cc2Cl)c(OC)c1 [Example 1176, N-{2-Chloro-4-[(6,7-dimethoxy-4-quinolyl)oxy]phenyl}-N′-(2,4-dimethoxybenzoyl)thiourea]	> 100 nM	–	–
COc1cc2nccc(Oc3ccc(NC(=S)NC(=O)N(CCCl)CCCl)cc3Cl)c2cc1OC [Example 1049, N-{3-Chloro-4-[(6,7-dimethoxy-4-quinolyl)oxy]phenyl}-[{[di(2-chloroethyl)amino]carbonyl}amino]methanethioamide]	44 nM	–	–
CCN(CC)CCCNC(=S)Nc1cc(C)c(Oc2ccnc3cc(OC)c(OC)cc23)cc1C [Example 551, N-{4-[(6,7-Dimethoxy-4-quinolyl)oxy]-2,5-dimethylphenyl}-N′-(3-diethylaminopropyl)thiourea]	> 100 nM	19%	–
COc1cc2nccc(Oc3ccc(NC(=O)OC4CCN(C)CC4)cc3)c2cc1OC [Example 466, 1-Methyl-4-piperidyl N-{4-[(6,7-dimethoxy-4-quinolyl)oxy]phenyl}carbamate]	> 100 nM	16%	–
COc1cc2ncnc(Oc3ccc(NC(=S)NC4CCN(Cc5ccccc5)CC4)cc3)c2cc1OC [Example 518, N-{4-[(6,7-Dimethoxy-4-quinazolinyl)oxy]phenyl}-N′-[4-(1-benzylpiperidinyl)]thiourea]	> 100 nM	17%	–
COc1cc2nccc(Oc3ccc(NC(=S)NC(=O)c4cc(C)ccc4C)cc3Cl)c2cc1OC [Example 1017, N-{3-Chloro-4-[(6,7-dimethoxy-4-quinolyl)oxy]phenyl}-N′-(2,5-dimethylbenzoyl)thiourea]	48 nM	–	–
N-{4-[(6,7-Dimethoxy-4-quinazolinyl)oxy]phenyl}-N-ethyl-N′-(4-phenylbutanoyl)thiourea [Example 1140]	> 100 nM	–	PDGF (E) inhibition (%) at 100 nM (figure in parentheses in >100( ), at 100 nM): 22%
COc1cc2nccc(Oc3ccc(NC(=S)NC(=O)C(C)(C)Oc4ccc(Cl)cc4)cc3)c2cc1OC [Example 757, N-[2-(4-Chlorophenoxy)-2-methylpropanoyl]-N′-{4-[(6,7-dimethoxy-4-quinolyl)oxy]phenyl}thiourea]	> 100 nM	45%	–
COc1cc2nccc(Oc3ccc(NC(=S)NN4CCCCC4)c(C)c3C)c2cc1OC [Example 521, N-{4-[(6,7-Dimethoxy-4-quinolyl)oxy]-2,3-dimethylphenyl}-N′-(1-piperidinyl)thiourea]	> 100 nM	–	–
CCOC(=O)CCCC(=O)NC(=S)Nc1ccc(Oc2ncnc3cc(OC)c(OC)cc23)cc1 [Example 1177, Ethyl 5-[({4-[(6,7-dimethoxy-4-quinazolinyl)oxy]anilino}carbothioyl)amino]-5-oxopentanoate]	17 nM	–	–

Molecule	IC50	inhibition at 0.1 µM (at 100 nM)	also measured
COc1cc2nccc(Oc3cc(C)c(NC(=S)NC(=O)c4cc(C)oc4C)cc3C)c2cc1OC [Example 717, N-{4-[(6,7-Dimethoxy-4-quinolyl)oxy]-2,5-dimethylphenyl}-N′-[(2 5-dimethyl-3-furyl)carbonyl]thiourea]	> 100 nM	8%	–
COc1cc2nccc(Oc3ccc(NC(=S)NC(=O)c4ccc(Cl)cc4)c(Cl)c3)c2cc1OC [Example 1174, N-(4-Chlorobenzoyl)-N′-{2-chloro-4-[(6,7-dimethoxy-4-quinolyl)oxy]phenyl}thiourea]	> 100 nM	–	–
COc1cc2ncnc(Oc3ccc(NC(=O)OCCCSc4ccc(C(C)(C)C)cc4)cc3)c2cc1OC [Example 75, 3-{[4-(Tert-butyl)phenyl]sulfanyl}propyl N-{4-[(6,7-dimethoxy-4-quinazolinyl)oxy]phenyl}carbamate]	–	–	IC50 (Pharmacological Test Example 1): 25 nM
COc1cc2nccc(Oc3ccc(NC(=S)NC(=O)CCc4cccc(C)c4)cc3Cl)c2cc1OC [Example 1184, N-{3-Chloro-4-[(6,7-dimethoxy-4quinolyl)oxy]phenyl}-N′-[3-(3-methylphenyl)propanoyl]thiourea]	55 nM	–	–
COc1cc2ncnc(Oc3ccc(NC(=S)NC(=O)CCCl)cc3)c2cc1OC [Example 1199, N-(3-Chloropropanoyl)-N′-{4-[(6,7-dimethoxy-4-quinazolinyl)oxy]phenyl}thiourea]	42 nM	–	–
CCOC(=O)CCC(=O)NC(=S)Nc1ccc(Oc2ncnc3cc(OC)c(OC)cc23)cc1 [Example 1178, Ethyl 4-[({4-[(6,7-dimethoxy-4-quinazolinyl)oxy]anilino}carbothioyl)amino]-4-oxobutanoate]	78 nM	–	–
COc1cc2ncnc(Oc3ccc(O)cc3)c2cc1OC [Example 773, 4-[(6,7-Dimethoxy-4-quinazolinyl)oxy]phenol]	> 100 nM	–	–
COc1cc2nccc(Oc3ccc(NC(=S)NC(=O)C(C)Oc4ccccc4)cc3Cl)c2cc1OC (stereo not drawn) [Example 746, N-{3-Chloro-4-[(6,7-dimethoxy-4-quinolyl)oxy]phenyl}-N′-(2-phenoxypropanoyl)thiourea]	> 100 nM	31%	–
COc1cc2ncnc(Oc3ccc(NC(=S)NC(=O)c4ccccc4F)cc3)c2cc1OC [Example 1161, N-{4-[(6,7-Dimethoxy-4-quinazolinyl)oxy]phenyl}-N′-(2-fluorobenzoyl)thiourea]	< 10 nM	–	–
COc1cc2nccc(Oc3ccc(NC(=S)NC(=O)Cc4ccccc4[N+](=O)[O-])cc3Cl)c2cc1OC [Example 736, N-{3-Chloro-4-[(6,7-dimethoxy-4-quinolyl)oxy]phenyl}-N′-[2-(2-nitrophenyl)acetyl]thiourea]	72 nM	–	–
COc1cc2nccc(Oc3ccc(NC(=O)Oc4ccc(C#N)cc4)c(C)c3C)c2cc1OC [Example 461, 4-Cyanophenyl N-{4-[(6,7-dimethoxy-4-quinolyl)oxy]-2,3-dimethylphenyl}carbamate]	60 nM	–	–
CCCC(OC(=O)Nc1ccc(Oc2ccnc3cc(OC)c(OC)cc23)c(C)c1C)c1ccccc1 (stereo not drawn) [Example 185, 1-Phenylbutyl N-{4-[(6,7-dimethoxy-4-quinolyl)oxy]-2,3-dimethylphenyl}carbamate]	–	–	IC50 (Pharmacological Test Example 1): 46 nM
COc1cc2nccc(Oc3cc(C)c(NC(=O)Oc4ccc(C#N)cc4)cc3C)c2cc1OC [Example 460, 4-Cyanophenyl N-{4-[(6,7-dimethoxy-4-quinolyl)oxy]-2,5-dimethylphenyl}carbamate]	> 100 nM	15%	–
COc1cc2nccc(Oc3ccc(NC(=O)OC(C#N)c4ccccc4)cc3)c2cc1OC (stereo not drawn) [Example 453, Cyano(phenyl)methyl N-{4-[(6,7-dimethoxy-4-quinolyl)oxy]phenyl}carbamate]	> 100 nM	1%	–
CCCC(OC(=O)Nc1cc(C)c(Oc2ccnc3cc(OC)c(OC)cc23)cc1C)c1ccccc1 (stereo not drawn) [Example 186, 1-Phenylbutyl N-{4-[(6,7-dimethoxy-4-quinolyl)oxy]-2,5-dimethylphenyl}carbamate]	–	–	IC50 (Pharmacological Test Example 1): 63 nM
COc1cc2nccc(Oc3ccc(NC(=S)NC(=O)c4ccc(C)cc4C)cc3Cl)c2cc1OC [Example 1016, N-{3-Chloro-4-[(6,7-dimethoxy-4-quinolyl)oxy]phenyl}-N′-(2,4-dimethylbenzoyl)thiourea]	48 nM	–	–
CCC(Oc1ccccc1)C(=O)NC(=S)Nc1ccc(Oc2ccnc3cc(OC)c(OC)cc23)c(Cl)c1 (stereo not drawn) [Example 742, N-{3-Chloro-4-[(6,7-dimethoxy-4-quinolyl)oxy]phenyl}-N′-(2-phenoxybutanoyl)thiourea]	92 nM	–	–
COc1cc2nccc(Oc3ccc(NC(=S)NC(=O)C4CCCO4)cc3Cl)c2cc1OC (stereo not drawn) [Example 766, N-{3-Chloro-4-[(6,7-dimethoxy-4-quinolyl)oxy]phenyl}-N′-tetrahydro-2-furanylcarbonylthiourea]	> 100 nM	45%	–
